# Experimental data taken from US7951598B2, “Differential hemolysis of a whole blood sample” (Roche Diagnostics Operations, Inc., priority 2006, dated 2011).
# Key:
# [1] = test system: red blood cells in EDTA-stabilized whole blood; assay: Visual evaluation of hemolysis (time until hemolysate is clear); assay type: cell-based
# Procedure: Whether the conditions for differential hemolysis are appropriate can be easily and preferably determined by using the following standardized procedure. A whole blood sample with a hematocrit of 40 is diluted 1:10 and mixed 1:1 with the candidate hemolysis reagent. The efficacy of a reagent for bringing about differential hemolysis is seen visually. Upon lysis of the erythrocytes the mixture becomes clear. If precipitation of sample constituents occurs the sample becomes turbid or viscous or both.
# (§1) Solution A: Fresh EDTA-stabilized whole blood is diluted with 0.15 molar sodium chloride solution in the ratio 1:10 (50 μL EDTA-blood plus 450 μL sodium chloride solution).
# In the case of the addition of a second compound, e.g. potassium iodide (1-Butyl-3-methyl pyridiniumchloride/KJ) the stated salt is added in an approximately equimolar amount.
# Hemolysate is prepared by mixing solution A and B in equal volumes, e.g. 500 μL solution A plus 500 μL solution B.
# After mixing the hemolysate is inspected visually for turbidometry and clearness immediately after mixing, after 1 minute, 2, 5, 6, 7, 20 and 40 minutes. The time until a clear solution is observed is recorded.
# [2] = test system: erythrocytes in whole blood; assay: Microscopic evaluation of hemolysis, May-Grünwald staining; assay type: cell-based
# Procedure: as §1
# (§2) Solution B: A solution of the hemolysis reagent in 0.15 molar sodium chloride is prepared where the concentration of the hemolysis reagent is twice as high as the desired final concentration in the hemolysate, e.g. to get a final concentration of 25% of 1-Butyl-4-methylpyridinium tetrafluoroborate a solution of 50% ([…] salt plus 50 mL 0.15 molar sodium chloride in water) is prepared. In the case of the addition of a second anion, e.g. iodide (1-Butyl-3-methylpyridiniumchloride/KJ) the stated salt is added in an equimolar amount.
# Hemolysate is prepared by mixing solution A and B in equal volumes, e.g. 20 μL solution A plus 20 μL solution B.
# After mixing of the hemolysate a droplet is smeared on a microscope slide, air dried at room temperature and stained with May-Grünwald staining reagent (Merck Cat. No. 1.01424 May-Grünwald's Eosin Methylene Blue Solution).
# Microscopy is performed by oil immersion light microscopy (magnification ×630).
# [3] = test system: erythrocytes in whole blood; assay: Microscopic evaluation of hemolysis, Trypane blue staining; assay type: cell-based; details: reagent 25%, 1 in 10 diluted whole blood
# Procedure: The integrity of red blood cells can for example be easily assessed by appropriate life stains. In a preferred embodiment according to the present invention trypane blue is used in order to assess the integrity of a red blood cell, membrane. […] The membrane integrity of a red blood cell is easily assessed under the microscope after staining a sample with trypane blue. The percentage of disrupted red blood cells is calculated by counting intact red blood cells before and after the treatment, by then dividing the first number by the latter number and by then multiplying this value by 100. Red blood cells that are solubilized are referred to as lyzed red blood cells or as lyzed erythrocytes.
# as §1
# as §2, with “In the case of the addition of a second anion, e.g. iodide (1-Butyl-3-methylpyridiniumchloride/KJ) the stated salt is added in an equimolar amount.” left out
# [4] = in vivo; cited from earlier work
# [5] = in vitro; cited from earlier work
# [6] = final concentration 25% (weight/volume), whole blood final dilution 1:20
# [7] = final concentration 12.5% (weight/volume)
structure (smiles),measurement,setting,value
CCCC[n+]1cccc(C)c1.[Cl-] [1-Butyl-3-methyl pyridiniumchloride],clear after (min.),[1]; [6],turbid
"O [water, reference compound]","light microscopy of hemolyzed whole blood, May-Grünwald staining","[2]; hemolyzed with water, 1 in 10 diluted whole blood (FIG. 1)",Erythrocyte membranes and nuclei are visible
CCCCCCCCOC[n+]1cccc(C(N)=O)c1.[Cl-] [3-Carbamoyl-1-octyloxymethyl pyridiniumchloride],clear after (min.),[1]; final concentration 1.5% (weight/volume),immediately
same,clear after (min.),[1]; final concentration 6.25% (weight/volume),immediately
same,clear after (min.),[1]; [7],immediately
CCCC[n+]1ccc(C)cc1.F[B-](F)(F)F [1-Butyl-4-methylpyridinium tetrafluoroborate],clear after (min.),[1]; final concentration 6% (weight/volume),turbid
same,clear after,[1]; [7],40 min
same,clear after,[1]; [6],20 min
same,"light microscopy of hemolyzed whole blood, May-Grünwald staining","[2]; reagent 25%, 1 in 10 diluted whole blood (FIG. 2)","No erythrocytes or membranes are left, nuclei are still intact"
same,"light microscopy of hemolyzed whole blood, Trypane blue staining",[3]; 2.5 min incubation time (FIG. 4a),Only few residual erythrocytes are left
same,"light microscopy of hemolyzed whole blood, Trypane blue staining",[3]; 15 min incubation time (FIG. 4b),No erythrocytes or membranes are left
"C=CC[C@@H]1/C=C(\C)C[C@H](C)C[C@H](OC)[C@H]2O[C@@](O)(C(=O)C(=O)N3CCCC[C@H]3C(=O)O[C@H](/C(C)=C/[C@@H]3CC[C@@H](O)[C@H](OC)C3)[C@H](C)[C@@H](O)CC1=O)[C@H](C)C[C@@H]2OC [Tacrolimus, tacrolimus]",therapeutic trough concentration,[4],5 to 20 µg/L
same,potency relative to cyclosporin,[5],up to 100 times
CCCCCCCCOS(=O)(=O)[O-].CCCCn1cc[n+](C)c1 [1-Butyl-3-methyl-imidazoliumoctylsulfate],clear after (min.),[1]; [6],immediately
"COc1c(C)c2c(c(O)c1C/C=C(\C)CCC(=O)OCCN1CCOCC1)C(=O)OC2 [MMF, mycophenolate mofetil]",therapeutic trough concentration,[4],1000 to 3500 µg/L
"CO[C@H]1C[C@@H]2CC[C@@H](C)[C@@](O)(O2)C(=O)C(=O)N2CCCC[C@H]2C(=O)O[C@H]([C@H](C)C[C@@H]2CC[C@@H](O)[C@H](OC)C2)CC(=O)[C@H](C)/C=C(\C)[C@@H](O)[C@@H](OC)C(=O)[C@H](C)C[C@H](C)/C=C/C=C/C=C/1C [Sirolimus, sirolimus]",therapeutic trough concentration,[4],5 to 15 µg/L
CCCCCCCC[N+]1(C)CCCC1.[Cl-] [1-Methyl-1-octyl pyrrolidiniumchloride],clear after (min.),[1]; final concentration 2.5% (weight/volume),turbid
same,clear after (min.),[1]; [6],immediately
CCCCCCCC[n+]1ccccc1.[Cl-] [N-Octylpyridiniumchloride],clear after,[1]; [6],2 min
CCCCn1cc[n+](C)c1.F[B-](F)(F)F [1-Butyl-3-methyl-imidazolium tetrafluoroborate],clear after,[1]; [6],20 min
CCCCCC[n+]1ccccc1.[Cl-] [1-Hexylpyridiniumchloride],clear after (min.),[1]; [7],turbid
same,clear after,[1]; [6],7 min
